# Read-outs that look alike come from different tables or passages of the source.
# Assays:
# AXL = molecular target: T1, AXL (Homo sapiens, UniProt P30530); assay: Caliper kinase assay: AXL; details: 0.01 μM
# T1 sequence (P30530 26-894): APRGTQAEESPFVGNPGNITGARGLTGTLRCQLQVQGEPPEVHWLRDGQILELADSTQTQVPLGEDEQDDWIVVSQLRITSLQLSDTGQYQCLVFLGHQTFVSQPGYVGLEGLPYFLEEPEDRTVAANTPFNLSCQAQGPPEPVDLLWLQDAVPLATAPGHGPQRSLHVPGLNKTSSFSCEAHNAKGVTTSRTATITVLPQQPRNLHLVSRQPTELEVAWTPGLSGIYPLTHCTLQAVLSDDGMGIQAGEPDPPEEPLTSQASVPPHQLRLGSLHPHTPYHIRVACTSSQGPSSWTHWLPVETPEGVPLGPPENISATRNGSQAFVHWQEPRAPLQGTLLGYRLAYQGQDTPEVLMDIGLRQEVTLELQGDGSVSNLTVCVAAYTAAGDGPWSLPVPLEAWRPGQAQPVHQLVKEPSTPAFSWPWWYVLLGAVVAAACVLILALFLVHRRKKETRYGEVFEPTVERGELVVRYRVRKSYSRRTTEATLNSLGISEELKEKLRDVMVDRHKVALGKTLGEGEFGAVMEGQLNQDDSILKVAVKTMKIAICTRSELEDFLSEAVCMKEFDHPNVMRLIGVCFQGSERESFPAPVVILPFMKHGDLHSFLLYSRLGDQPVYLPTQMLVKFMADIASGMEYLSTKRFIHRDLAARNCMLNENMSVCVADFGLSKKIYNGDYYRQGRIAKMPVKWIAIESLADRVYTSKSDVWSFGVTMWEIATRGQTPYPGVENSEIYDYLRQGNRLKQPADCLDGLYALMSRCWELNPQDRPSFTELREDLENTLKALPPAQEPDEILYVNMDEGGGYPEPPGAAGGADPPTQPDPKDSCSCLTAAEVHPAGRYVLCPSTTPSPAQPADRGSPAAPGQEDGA
# Method: (§6) The compound was tested at concentrations of 1.0×10^−8 and 1.0×10^−9 M in the RapidKinase192™ panel in duplicate. […] The screening was performed using the Caliper EZReader2, a 4-sipper LabChip, and ProfilerPro Kinase Selectivity Assay Kits 1 and 2. The assay measures the conversion of a fluorescent peptide substrate to a phosphorylated product. Briefly, the reaction mixture was introduced through a capillary sipper onto the microfluidic chip, where the substrate and product were electrophoretically separated and detected by laser-induced fluorescence. The time-dependent fluorescence signal indicates the extent of the reaction.
# (§7) The kinases tested were AurA, AurB, AurC, AXL, FAK2, IGF1R, InsR, Mer, MET, Trk B and Trk C.
# (§8) The assays were conducted using the Caliper LabChip 3000 and a 12-sipper LabChip as described above.
# PYK2 = PYK2 (Homo sapiens, UniProt Q14289); assay: Caliper kinase assay: PYK2 (called FAK2); details: FAK2, 0.01 μM
# PYK2, sequence (Q14289 whole entry): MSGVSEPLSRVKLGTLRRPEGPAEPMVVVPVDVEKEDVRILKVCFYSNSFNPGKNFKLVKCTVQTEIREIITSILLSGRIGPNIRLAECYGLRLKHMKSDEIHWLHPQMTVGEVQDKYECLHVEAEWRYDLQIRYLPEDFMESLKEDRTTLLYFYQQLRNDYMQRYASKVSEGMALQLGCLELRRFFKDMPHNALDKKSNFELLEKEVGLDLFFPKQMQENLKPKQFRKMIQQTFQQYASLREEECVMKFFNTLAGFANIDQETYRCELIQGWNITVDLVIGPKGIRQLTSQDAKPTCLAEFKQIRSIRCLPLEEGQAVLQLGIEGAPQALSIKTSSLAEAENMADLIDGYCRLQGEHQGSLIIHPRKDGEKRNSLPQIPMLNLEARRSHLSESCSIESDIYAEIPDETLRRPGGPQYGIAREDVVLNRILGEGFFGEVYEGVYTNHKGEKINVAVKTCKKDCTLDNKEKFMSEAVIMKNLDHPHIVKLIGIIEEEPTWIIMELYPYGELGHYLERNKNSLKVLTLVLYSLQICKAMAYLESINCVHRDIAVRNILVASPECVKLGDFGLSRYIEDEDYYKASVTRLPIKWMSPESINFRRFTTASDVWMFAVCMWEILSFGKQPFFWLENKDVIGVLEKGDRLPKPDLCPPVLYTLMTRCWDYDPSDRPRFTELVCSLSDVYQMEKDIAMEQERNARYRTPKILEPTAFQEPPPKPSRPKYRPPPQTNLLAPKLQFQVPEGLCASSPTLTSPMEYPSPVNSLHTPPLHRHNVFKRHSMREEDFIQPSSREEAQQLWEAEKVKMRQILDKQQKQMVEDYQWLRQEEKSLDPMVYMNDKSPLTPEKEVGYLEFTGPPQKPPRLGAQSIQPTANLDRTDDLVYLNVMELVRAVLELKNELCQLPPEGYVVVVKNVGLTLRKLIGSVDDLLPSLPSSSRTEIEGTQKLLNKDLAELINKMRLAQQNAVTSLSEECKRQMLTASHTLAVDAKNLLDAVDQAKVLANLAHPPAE
# Method: as §6, §7, §8
# NTRK2(TRKB) = NTRK2(TRKB) (Homo sapiens, UniProt Q16620); assay: Caliper kinase assay: NTRK2 (TRKB); details: Trk B, 0.01 μM
# NTRK2(TRKB), sequence (Q16620 32-822): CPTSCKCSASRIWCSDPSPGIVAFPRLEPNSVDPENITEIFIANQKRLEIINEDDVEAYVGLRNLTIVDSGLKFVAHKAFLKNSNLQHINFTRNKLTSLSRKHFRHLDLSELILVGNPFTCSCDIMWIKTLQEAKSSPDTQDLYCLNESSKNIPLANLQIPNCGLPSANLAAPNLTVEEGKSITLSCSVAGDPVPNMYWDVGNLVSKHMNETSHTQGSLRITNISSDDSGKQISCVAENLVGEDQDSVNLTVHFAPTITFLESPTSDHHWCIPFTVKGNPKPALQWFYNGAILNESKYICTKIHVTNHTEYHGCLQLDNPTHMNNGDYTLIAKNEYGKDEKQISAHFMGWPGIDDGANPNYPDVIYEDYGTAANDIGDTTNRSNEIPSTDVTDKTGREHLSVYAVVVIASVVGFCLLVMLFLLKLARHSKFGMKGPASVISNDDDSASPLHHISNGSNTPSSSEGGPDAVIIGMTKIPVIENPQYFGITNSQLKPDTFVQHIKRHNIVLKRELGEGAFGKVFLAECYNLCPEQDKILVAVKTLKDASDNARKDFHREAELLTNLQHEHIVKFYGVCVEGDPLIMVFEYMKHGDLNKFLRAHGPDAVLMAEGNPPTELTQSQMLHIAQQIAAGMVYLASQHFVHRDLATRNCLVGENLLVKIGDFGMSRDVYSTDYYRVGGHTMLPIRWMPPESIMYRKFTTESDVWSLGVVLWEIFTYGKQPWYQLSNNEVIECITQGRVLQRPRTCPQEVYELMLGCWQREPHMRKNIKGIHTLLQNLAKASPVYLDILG
# Method: as §6, §7, §8
# IR = molecular target: T2, IR (Homo sapiens, UniProt P06213); assay: In vitro IR enzymatic assay (ADP-Glo kinase assay); format: biochemical; details: activated IR, 30 nM
# T2 construct: purchased Millipore 14-803
# T2 sequence (P06213 28-1382): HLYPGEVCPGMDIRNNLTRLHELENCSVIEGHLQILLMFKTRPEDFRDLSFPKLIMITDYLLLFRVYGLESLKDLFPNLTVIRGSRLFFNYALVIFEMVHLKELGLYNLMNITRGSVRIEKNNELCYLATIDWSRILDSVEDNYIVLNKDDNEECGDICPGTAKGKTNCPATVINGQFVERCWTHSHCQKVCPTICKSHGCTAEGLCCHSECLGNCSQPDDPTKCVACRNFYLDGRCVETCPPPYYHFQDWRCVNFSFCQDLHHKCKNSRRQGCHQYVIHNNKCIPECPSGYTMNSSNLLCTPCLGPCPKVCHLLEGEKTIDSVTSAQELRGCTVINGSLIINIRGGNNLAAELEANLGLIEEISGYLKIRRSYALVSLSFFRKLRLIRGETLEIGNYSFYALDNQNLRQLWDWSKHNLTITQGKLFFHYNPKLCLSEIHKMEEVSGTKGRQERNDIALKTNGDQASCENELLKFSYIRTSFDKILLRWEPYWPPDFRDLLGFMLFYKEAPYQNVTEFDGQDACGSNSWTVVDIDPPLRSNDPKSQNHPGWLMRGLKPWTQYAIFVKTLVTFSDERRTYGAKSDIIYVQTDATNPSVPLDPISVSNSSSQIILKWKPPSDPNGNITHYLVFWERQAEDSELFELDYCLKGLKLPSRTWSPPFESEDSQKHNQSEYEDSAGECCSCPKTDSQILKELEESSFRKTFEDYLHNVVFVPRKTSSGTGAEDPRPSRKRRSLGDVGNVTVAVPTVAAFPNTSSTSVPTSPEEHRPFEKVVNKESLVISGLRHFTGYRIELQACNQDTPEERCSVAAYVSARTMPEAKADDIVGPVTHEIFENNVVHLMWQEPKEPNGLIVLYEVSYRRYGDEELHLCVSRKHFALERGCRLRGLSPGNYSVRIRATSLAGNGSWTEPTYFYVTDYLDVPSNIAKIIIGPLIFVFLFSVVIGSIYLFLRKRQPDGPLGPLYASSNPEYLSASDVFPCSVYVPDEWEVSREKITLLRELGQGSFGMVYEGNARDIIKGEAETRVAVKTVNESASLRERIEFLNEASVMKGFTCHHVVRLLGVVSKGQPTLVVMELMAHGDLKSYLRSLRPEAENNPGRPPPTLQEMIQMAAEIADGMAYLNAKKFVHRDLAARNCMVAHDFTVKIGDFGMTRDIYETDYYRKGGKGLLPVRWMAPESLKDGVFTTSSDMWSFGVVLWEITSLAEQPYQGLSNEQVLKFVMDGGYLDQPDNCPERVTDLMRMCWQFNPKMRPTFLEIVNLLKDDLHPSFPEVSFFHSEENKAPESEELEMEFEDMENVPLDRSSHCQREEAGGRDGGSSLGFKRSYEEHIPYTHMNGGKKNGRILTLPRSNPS
# Method: (§1) IC50 values of the compounds of the invention against IGF-1R and IR were measured in vitro using an ADP-Glo kinase assay Kit (Promega). […] Kinase reactions in both assays were conducted at 30° C. for 20 min with increasing concentrations of compounds of the invention.
# Additional compounds of the invention were screened against activated IR.
# TRKC(NTRK3) = TRKC(NTRK3) (Homo sapiens, UniProt Q16288); assay: Caliper kinase assay: TRKC (NTRK3); details: Trk C, 0.01 μM
# Method: as §6, §7, §8
# IGF-1R = molecular target: T3, IGF-1R (Homo sapiens, UniProt P08069); assay: In vitro IGF-1R enzymatic assay (ADP-Glo kinase assay); format: biochemical; details: activated IGF-1R, 30 nM
# T3 construct: purchased Millipore 14-802
# T3 sequence (P08069 31-1367): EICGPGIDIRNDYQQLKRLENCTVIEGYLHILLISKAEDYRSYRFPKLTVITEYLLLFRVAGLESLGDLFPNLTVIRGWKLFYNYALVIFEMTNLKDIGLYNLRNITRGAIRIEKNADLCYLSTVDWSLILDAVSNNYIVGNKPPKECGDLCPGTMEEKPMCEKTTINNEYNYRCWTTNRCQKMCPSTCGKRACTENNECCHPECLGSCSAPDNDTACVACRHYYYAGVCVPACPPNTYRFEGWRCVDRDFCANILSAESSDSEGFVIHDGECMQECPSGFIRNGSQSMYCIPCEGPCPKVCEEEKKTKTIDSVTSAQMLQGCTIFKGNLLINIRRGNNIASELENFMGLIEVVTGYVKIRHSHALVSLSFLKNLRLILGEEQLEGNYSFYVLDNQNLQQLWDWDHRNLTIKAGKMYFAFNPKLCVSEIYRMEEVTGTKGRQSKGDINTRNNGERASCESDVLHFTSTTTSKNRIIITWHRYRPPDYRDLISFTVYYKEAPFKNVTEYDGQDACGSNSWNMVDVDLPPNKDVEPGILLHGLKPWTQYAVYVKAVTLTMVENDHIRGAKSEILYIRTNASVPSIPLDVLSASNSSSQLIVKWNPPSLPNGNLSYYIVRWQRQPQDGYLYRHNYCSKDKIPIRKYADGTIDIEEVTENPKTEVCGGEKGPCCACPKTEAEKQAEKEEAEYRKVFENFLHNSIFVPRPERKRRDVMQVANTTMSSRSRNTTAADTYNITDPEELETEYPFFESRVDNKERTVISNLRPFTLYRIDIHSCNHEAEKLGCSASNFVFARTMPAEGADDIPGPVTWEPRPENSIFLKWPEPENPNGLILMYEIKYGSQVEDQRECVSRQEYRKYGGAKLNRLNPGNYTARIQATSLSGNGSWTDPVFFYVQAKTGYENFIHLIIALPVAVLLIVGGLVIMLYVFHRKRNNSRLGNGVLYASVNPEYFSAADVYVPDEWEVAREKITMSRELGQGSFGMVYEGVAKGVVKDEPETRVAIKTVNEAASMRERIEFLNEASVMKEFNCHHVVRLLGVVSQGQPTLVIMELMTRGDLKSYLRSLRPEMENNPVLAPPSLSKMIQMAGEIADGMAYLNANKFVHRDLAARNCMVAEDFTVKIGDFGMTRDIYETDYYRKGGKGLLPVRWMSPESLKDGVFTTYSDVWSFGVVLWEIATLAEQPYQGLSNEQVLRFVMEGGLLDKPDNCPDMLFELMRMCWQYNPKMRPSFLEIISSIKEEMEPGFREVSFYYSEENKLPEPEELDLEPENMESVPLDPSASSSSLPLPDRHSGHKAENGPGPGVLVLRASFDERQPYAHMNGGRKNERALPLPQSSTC
# Method: as §1
# Additional compounds of the invention were screened against activated IGF-1R.
# [1] = tested on: Akt phosphorylation induced by IGF-1R; assay: Western blot analysis of Akt phosphorylation induced by IGF-1 in HT-29 cells; format: cell-based, Human; details: for Levels of phosphorylated AKT in treated cells (pAKT/actin): HT-29 cells, IGF-1; for p-AKT relative to levels with 0.1 nM compound: Table B2 lower part; for Normalized phosphorylated AKT (relative to actin) levels relative to 0.1 nM compound treatment: Table B2 upper part; for pAKT relative to 0.1 nM compound: derivatives of Cpd. No. 8b
# Outline: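 HT-29 cells grown 24 h in DME/F12 with 10% FBS, serum-starved 24 h, then exposed 2 h to compound at 0.1, 1, 10 or 100; controls received DMSO or 10 ng/mL IGF-1. Lysate soluble fractions quantified by BCA before western blotting for phospho-Akt.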
# MDA MB175 = assay: Cell Titer-Glo cell viability: MDA MB175; format: cell-based; details: MDA-MB-175, any concentration tested, 3 μM maximum
# Method: (§2) Compound nos. […] This panel of cell lines includes an ER− breast carcinoma, primary breast ductal carcinoma, prostate adenocarcinoma, mammary adenocarcinoma, mammary ductal carcinoma, mammary ductal carcinoma, ovary adenocarcinoma, ER+ breast carcinoma, ER− HER2+ mammary ductal carcinoma and an ER+ mammary ductal carcinoma, respectively.
# (§3) This assay quantitates the ATP present in order to determine the number of viable cells in culture. Briefly, the compounds were incubated with the cells for 72 h, followed by cell lysis. The resulting luminescent signal is proportional to the amount of ATP present and, therefore, directly proportional to the number of cells present in culture.
# (§4) Compounds 2b, 5, 6b and 10a were tested along with derivatives in viability assays as described above by Caliper LifeSciences Systems (Hanover, Md.), in A549, HCT-15, HCT-116, MCF-7, MDA-MB-231, OVCAR3, T47D, COLO205, HT-29, BT-20, HCC1187, HL-60, MDA-MB-175, SW-620, and UACC812 cells.
# (§5) The inhibitory effects of Compound 8a were tested in two cell lines.
# UACC 812 = assay: Cell Titer-Glo cell viability: UACC 812; format: cell-based; details: UACC812, any concentration tested, 3 μM maximum
# Method: as §2, §3, §4, §5
# [2] = N1, read-out: % Inh @ 30 nM (N1)
# [3] = N2, read-out: % Inh @ 30 nM (N2)
# [4] = average, read-out: % Inh @ 30 nM Avg
Structure (SMILES),inhibition at 0.03 µM (IGF-1R; [4]) [%],Levels of phosphorylated AKT in treated cells (pAKT/actin) ([1]; 0.1 nM compound),p-AKT relative to levels with 0.1 nM compound ([1]; 0.1 nM),Normalized phosphorylated AKT (relative to actin) levels relative to 0.1 nM compound treatment ([1]; 0.1 nM),Levels of phosphorylated AKT in treated cells (pAKT/actin) ([1]; 1 nM compound),p-AKT relative to levels with 0.1 nM compound ([1]; 1 nM),Normalized phosphorylated AKT (relative to actin) levels relative to 0.1 nM compound treatment ([1]; 1 nM),Levels of phosphorylated AKT in treated cells (pAKT/actin) ([1]; 10 nM compound),p-AKT relative to levels with 0.1 nM compound ([1]; 10 nM),Levels of phosphorylated AKT in treated cells (pAKT/actin) ([1]; 100 nM compound),p-AKT relative to levels with 0.1 nM compound ([1]; 100 nM),Normalized phosphorylated AKT (relative to actin) levels relative to 0.1 nM compound treatment ([1]; 100 nM),also measured
"O=C(Nc1cnccn1)C1CCCN1c1nc2c(c(Nc3cc(C4CC4)[nH]n3)n1)CCC2 (single isomer, unassigned) [Compound 6b, 1-(4-(3-cyclopropyl-1H-pyrazol-5-ylamino)-6,7-dihydro-5H-cyclopenta[d]pyrimidin-2-yl)-N-(pyrazin-2-yl)pyrrolidine-2-carboxamide]",94,0.87,1.0,1.0,0.18,0.2,0.2,0.00,0.0,0.00,0.0,0.0,inhibition of kinase (AXL): strongly inhibited; inhibition of kinase (PYK2): strongly inhibited; inhibition of kinase (NTRK2(TRKB)): strongly inhibited; inhibition at 0.03 µM (IR; [2]): 92%; inhibition at 0.03 µM (IR; [3]): 91%; inhibition at 0.03 µM (IR; [4]): 92%; inhibition of kinase (TRKC(NTRK3)): strongly inhibited; inhibition at 0.03 µM (IGF-1R; [2]): 93%; inhibition at 0.03 µM (IGF-1R; [3]): 95%; pAKT relative to 0.1 nM compound ([1]; 0.1 nM): 1.00; pAKT relative to 0.1 nM compound ([1]; 1 nM): 0.39; pAKT relative to 0.1 nM compound ([1]; 10 nM): 0.02; pAKT relative to 0.1 nM compound ([1]; 100 nM): 0.01
"CC(C)c1cc(Nc2nc(N3CCC[C@H]3C(=O)Nc3ccc(F)nc3)nc3c2CCC3)n[nH]1 (single isomer, unassigned) [Compound 8a]",0,1.93,1.0,1.0,2.27,1.2,1.2,1.17,0.6,1.78,0.9,0.9,proliferation as compared to the untreated control (MDA MB175): ≥ 68%; proliferation as compared to the untreated control (UACC 812): ≥ 68%; Normalized phosphorylated AKT (relative to actin) levels relative to 0.1 nM compound treatment ([1]; 10 nM): 0.6
